In a melting point compilation (Tetko et al.; mined from patent text by program, amines drawn as free bases though some values may be those of a salt):

melting point | SMILES
101 to 103 °C | CNC(=C[N+](=O)[O-])SCc1ccc(CN(C)C)o1
191 to 192 °C | Cc1ccc(C[C@H]2NC(=O)CN(Cc3ccccc3)C2=O)cc1C
219 to 220 °C | Cc1cc2c(nc1N)C(=O)N(C(C)C1CC1)C2=O (stereo not given)
101 to 102 °C | COc1ccccc1NS(=O)(=O)c1ccc(F)cc1
60 to 64 °C | COC(=O)Cc1ccc(OCCNC(=O)C2Cc3ccccc3N2S(=O)(=O)c2ccc(-c3ccc(F)cc3F)cc2)cc1 (stereo not given)
107 to 112 °C | CCOC(=O)C(Cc1ccc(-c2ccco2)cc1)NC(=O)C1(NC(=O)OC(C)(C)C)CCCC1 (stereo not given)
68 to 70 °C | CCN1C[C@@H](SCc2ccc(OC)cc2)C[C@H]1C(=O)NC
144 °C | CC(C)C(=O)Oc1ccc(C(=O)c2ccc(OC(=O)C(C)C)cc2)cc1
202 to 203 °C | CCCc1nc2c(N)nc3ccccc3c2n1CCCCC(N)=O
109 °C | CS(=O)(=O)Nc1ccc2ccccc2c1-c1c(P(c2ccccc2)c2ccccc2)ccc2ccccc12
182 to 184 °C | Nc1cccc2c1C(Cc1ccnc(F)c1)(Cc1ccnc(F)c1)c1ccccc1-2
254 to 257 °C | CC(C)(O)Cn1cnc2c(N)nc3cc(OCc4ccccc4)ccc3c21
> 250 °C | CC1(C)C=C(c2c(N)c(=O)c2=O)c2cc(C#N)ccc2O1
196 to 198 °C | CCOC(=O)CCNC(=O)NC1CCN(c2ccc(C(=N)NOC(=O)OCC(Cl)(Cl)Cl)cc2)C1=O (stereo not given)
141 to 144 °C | Clc1cc(Cl)c2c(c1)C[C@@H]1CCc3ccccc3[C@@H]1O2 (relative stereo)
171 to 172 °C | CCN1CCCC1CNC(=O)c1cc(NS(C)(=O)=O)ccc1OC (stereo not given)
114 to 116 °C | CCC[C@@H]1COC(=O)N1c1nc(-c2ccc(Br)cc2)cs1
49 to 52 °C | COc1cn(C(C)c2ccccc2)c(=O)o1 (stereo not given)
67 °C | CCOC(=O)C=C(C)Nc1cc(C)ccc1C
92 to 94 °C | COc1ccc2c(c1)CN(CCc1ccc([N+](=O)[O-])cc1)CC2

melting point | SMILES
164 to 166 °C | COc1cc(CC#Cc2c(C)nc(N)nc2N)cc(OC)c1OC
141 to 142 °C | Cc1cc(Oc2cccc(C#CC(C)N(O)C(N)=O)c2)ccc1F (stereo not given)
71 to 73 °C | CCC(=O)Cc1cc(OC2CCCC2)ccc1NC(=O)OC(C)(C)C
108 to 109 °C | COC(=O)CS(=O)CCCCCn1nc(-c2ccccc2)c(-c2ccccc2)c1-c1ccccc1 (stereo not given)
150 to 152 °C | NC(=O)CNC(=S)Nc1ccccc1
137 to 140 °C | CCOCc1nc2c(N)nc3ccccc3c2n1NCC(C)C
102 to 104 °C | Cc1cc(C)c(C(=O)c2c(C)cccc2C)c(OCC(O)CNC(C)C)c1 (stereo not given)
187 to 189 °C | Cc1cc(C)n(-c2ccc(C#N)nn2)n1
211 to 213 °C | COc1cccc(CNC(=O)c2nc3c(cc(C)n3S(C)(=O)=O)c(=O)[nH]2)c1
170 to 171 °C | CCCc1c(OCCCOc2ccc(Cl)c3ccccc23)ccc2c1OC(CCC(=O)O)(CCC(=O)O)CC2=O
122 to 125 °C | CONC(=O)NC1CCCc2ccccc21 (stereo not given)
166 to 167 °C | Cc1nc(-n2cc(OCc3ccccc3)ccc2=O)sc1C(=O)NCc1ccccc1
108 to 109 °C | COc1ccc2c(c1Br)CCC=C2C#N
179 °C | Nc1cccc2c1Cc1cccc(N)c1C2
115 °C | N#Cc1cnn(-c2ccc(OC(F)(F)F)cc2Cl)c1N
172 °C | COCCC(=O)OC1(C(=O)CO)CCC2C3CCC4=CC(=O)CCC4(C)C3C(O)CC21C (stereo not given)
164 to 167 °C | Cc1nc2ccc(CNS(=O)(=O)c3ccccc3)cc2n1Cc1ccccc1Cl
229 to 230 °C | CNC(=O)Nc1ccc2[nH]cc(C3CCN(C)CC3)c2n1
146 to 147 °C | COCN(c1cccc2cc(C(=O)/N=C/N(C)C)n(COC)c12)S(=O)(=O)c1cccs1

SMILES | melting point
COc1ccc(C(=O)Nc2ccccc2CC2CCCCN2)cc1 (stereo not given) | 108 to 109 °C
